The values below come from patent publication US9193722B2, “Tri-cyclic pyrazolopyridine kinase inhibitors” (Vertex Pharmaceuticals Incorporated, priority 2008, dated 2015).

Format in all cases: biochemical
Assay [1] concerns the target PKC theta kinase (Homo sapiens, UniProt Q04759). Briefly: PKC theta kinase inhibition, coupled-enzyme (NADH absorbance) assay, Ki. To be noted: 240 μM ATP, 18 nM PKC theta kinase, 30° C. The gist of the method: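 Enzyme and compound equilibrated 10 min at 30 °C before reaction in HEPES pH 7.5 buffer with MgCl2, NaCl, EDTA and Brij. Activity tracked as NADH loss at 340 nm through a coupled system. Initial-rate data fitted by non-linear regression to give Ki.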

The target of assay [2] is PKC delta kinase (Homo sapiens, UniProt Q05655). Kind of assay: PKC delta kinase inhibition, coupled-enzyme (NADH absorbance) assay, Ki. To be noted: 150 μM ATP, 46 nM PKC delta kinase, 30° C.; read-out: Ki PKC delta. Summed up:
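Enzyme and compound pre-equilibrated 10 min at 30° C before adding ATP to 150 μM final. Buffer: HEPES pH 7.5 (100 mM), 10 mM MgCl2, 25 mM NaCl, 0.1 mM EDTA, 0.01% Brij.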

Assay [3] deals with PKC alpha kinase (Homo sapiens, UniProt P17252). Briefly: PKC alpha kinase inhibition, coupled-enzyme (NADH absorbance) assay, Ki. To be noted: 130 μM ATP, 4.5 nM PKC alpha kinase, 30° C. The gist of the method:
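Ki derived by non-linear regression of initial rates from a coupled assay tracking NADH absorbance at 340 nm over 15 min at 30 °C. ATP was 130 μM final after a 10 min compound–enzyme preincubation in HEPES pH 7.5 buffer with MgCl2, CaCl2, NaCl, EDTA and Brij.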

Sequence of PKC theta kinase (Q04759 whole entry): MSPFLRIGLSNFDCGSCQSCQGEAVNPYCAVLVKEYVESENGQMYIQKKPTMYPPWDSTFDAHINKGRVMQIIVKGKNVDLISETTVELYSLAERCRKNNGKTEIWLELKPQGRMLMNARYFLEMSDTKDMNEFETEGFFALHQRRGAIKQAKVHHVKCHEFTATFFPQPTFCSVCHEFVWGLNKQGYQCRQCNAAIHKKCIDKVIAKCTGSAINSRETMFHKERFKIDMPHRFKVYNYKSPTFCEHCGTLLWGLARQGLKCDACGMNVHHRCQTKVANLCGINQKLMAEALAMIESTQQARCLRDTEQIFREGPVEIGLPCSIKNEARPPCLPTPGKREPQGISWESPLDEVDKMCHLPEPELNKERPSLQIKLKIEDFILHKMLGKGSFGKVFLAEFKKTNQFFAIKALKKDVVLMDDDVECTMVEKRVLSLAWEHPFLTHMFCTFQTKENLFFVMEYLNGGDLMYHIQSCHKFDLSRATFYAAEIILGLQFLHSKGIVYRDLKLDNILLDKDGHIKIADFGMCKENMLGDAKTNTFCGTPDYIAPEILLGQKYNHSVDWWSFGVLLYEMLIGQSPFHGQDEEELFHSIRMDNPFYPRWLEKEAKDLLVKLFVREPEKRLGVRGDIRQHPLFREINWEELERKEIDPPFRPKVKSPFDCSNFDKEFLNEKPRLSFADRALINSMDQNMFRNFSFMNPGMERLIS
Sequence of PKC delta kinase (Q05655 whole entry): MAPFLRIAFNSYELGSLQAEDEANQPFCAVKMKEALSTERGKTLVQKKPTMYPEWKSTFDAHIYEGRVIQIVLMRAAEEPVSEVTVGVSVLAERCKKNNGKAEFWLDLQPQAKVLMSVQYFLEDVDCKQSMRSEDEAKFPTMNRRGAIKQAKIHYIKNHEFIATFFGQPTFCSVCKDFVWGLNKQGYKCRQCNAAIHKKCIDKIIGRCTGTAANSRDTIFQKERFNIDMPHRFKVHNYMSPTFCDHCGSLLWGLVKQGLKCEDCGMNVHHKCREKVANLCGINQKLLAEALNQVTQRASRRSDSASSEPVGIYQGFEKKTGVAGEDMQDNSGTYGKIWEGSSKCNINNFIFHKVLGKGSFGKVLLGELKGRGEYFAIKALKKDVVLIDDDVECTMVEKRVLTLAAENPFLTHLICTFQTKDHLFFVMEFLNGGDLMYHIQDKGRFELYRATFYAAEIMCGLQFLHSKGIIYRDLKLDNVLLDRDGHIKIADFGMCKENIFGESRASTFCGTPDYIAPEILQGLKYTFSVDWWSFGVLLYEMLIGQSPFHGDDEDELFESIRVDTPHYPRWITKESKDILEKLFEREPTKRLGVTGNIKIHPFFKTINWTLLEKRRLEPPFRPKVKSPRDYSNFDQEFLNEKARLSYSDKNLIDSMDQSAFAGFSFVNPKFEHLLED

With `CC(C)C[C@H]1CN(c2cccc(-c3n[nH]c4ncccc34)n2)CC[C@@H]1N` [Compound 130], the Ki in assay [1] was < 50 nM; in assay [2], < 500 nM; in assay [3], < 2800 nM.
The corresponding values for `CC(C)C[C@H]1CN(c2nc(-c3n[nH]c4ncccc34)ccc2F)CCN1` [Compound 131] are < 50 nM, < 2800 nM and < 2800 nM.
Take `CC(C)CC1(C)CN(c2nc(-c3n[nH]c4ncccc34)ccc2F)CCN1` (stereo not drawn) [Compound 132]: the values for the Ki in assay [1], in assay [2] and in assay [3] were < 50 nM, < 500 nM and < 2800 nM, respectively.
In the same order, the values of `Cc1ccc(C2CN(c3ccc(C(F)(F)F)c(-c4n[nH]c5ncccc45)n3)CCN2)cc1` (stereo not drawn) [Compound 133] are < 500 nM, > 1250 nM and > 1250 nM.
Regarding `Cc1cccc(C2CN(c3ccc(C(F)(F)F)c(-c4n[nH]c5ncccc45)n3)CCN2)c1` (stereo not drawn) [Compound 134], the Ki was < 50 nM in assay [1], < 2800 nM in assay [2] and < 2800 nM in assay [3].
Regarding `CC(C)(O)[C@H]1CN(c2cccc(-c3n[nH]c4ncccc34)n2)CCN1` [Compound 136], the Ki in assay [1] is < 50 nM; in assay [2], < 500 nM; in assay [3] it was > 1250 nM.
In the same order, the values of `CC(C)C[C@@H]1CN(c2ccc(C(F)(F)F)c(-c3n[nH]c4ncccc34)n2)CC[C@@H]1N` [Compound 138] are < 50 nM, < 500 nM and < 2800 nM.
In the same order, the values of `CC(C)(C)C[C@H]1CN(c2cccc(-c3n[nH]c4ncccc34)n2)CCN1` [Compound 139] are < 50 nM, < 50 nM and < 2800 nM.
The corresponding values for `CC(C)(C)C[C@H]1CN(c2ccc(C(F)(F)F)c(-c3n[nH]c4ncccc34)n2)CCN1` [Compound 140] are < 50 nM, > 1250 nM and > 1250 nM.
Turning to `CC(C)(C)C[C@H]1CN(c2ccc(Cl)c(-c3n[nH]c4ncccc34)n2)CCN1` [Compound 141], the Ki in assay [1] is < 50 nM; in assay [2] it was < 500 nM; in assay [3] it was < 2800 nM.
In the same order, the values of `CC(C)(C)C[C@H]1CN(c2ccc(F)c(-c3n[nH]c4ncccc34)n2)CCN1` [Compound 142] are < 50 nM, < 500 nM and > 1250 nM.
In the same order, the values of `CC(C)C(F)(F)C1CN(c2cccc(-c3n[nH]c4ncccc34)n2)CCN1` (stereo not drawn) [Compound 143] are < 500 nM, < 2800 nM and > 1250 nM.
In the same order, the values of `CC(C)C[C@H]1CN(c2cccc(-c3n[nH]c4ncccc34)n2)CC[C@H]1O` [Compound 144] are < 50 nM, < 2800 nM and > 1250 nM.
In the case of `CC(C)C[C@H]1CN(c2cccc(-c3n[nH]c4ncccc34)n2)CC[C@@H]1O` [Compound 145], the Ki in assay [1] is < 500 nM; in assay [2] it was > 1250 nM; in assay [3], > 1250 nM.
For the molecule `CC(C)C[C@H]1CC(F)(c2cccc(-c3n[nH]c4ncccc34)n2)CCN1` (stereo partly drawn) [Compound 146], the values for the Ki in assay [1], in assay [2] and in assay [3] were < 500 nM, < 2800 nM and > 1250 nM, respectively.
The corresponding values for `CCOC[C@H]1CN(c2cccc(-c3n[nH]c4ncccc34)n2)CCN1` [Compound 147] are < 500 nM, > 1250 nM and > 1250 nM.
The corresponding values for `CC(C)(F)C1CN(c2cccc(-c3n[nH]c4ncccc34)n2)CCN1` (stereo not drawn) [Compound 148] are < 50 nM, < 500 nM and > 1250 nM.
The corresponding values for `CC(C)C[C@H]1CN(c2ccc(Cl)c(-c3n[nH]c4ncccc34)n2)CC[C@H]1N` [Compound 149] are < 50 nM, < 500 nM and < 500 nM.
As for `CC(C)C(F)(F)C1CN(c2ccc(C(F)(F)F)c(-c3n[nH]c4ncccc34)n2)CCN1` (stereo not drawn) [Compound 150], the Ki in assay [1] was < 500 nM; in assay [2], > 1250 nM; in assay [3], > 1250 nM.
For the molecule `CC(C)(F)CC1CN(c2ccc(F)c(-c3n[nH]c4ncccc34)n2)CCN1` (stereo not drawn) [Compound 151], the Ki in assay [1] was < 50 nM; in assay [2], < 500 nM; in assay [3], > 1250 nM.
On to `CC(C)C[C@H]1CN(c2ccc(F)c(-c3n[nH]c4ncccc34)n2)CC[C@H]1N` [Compound 152], for which the Ki is < 50 nM in assay [1], < 500 nM in assay [2] and < 500 nM in assay [3].
As for `OCC1CN(c2cccc(-c3n[nH]c4ncccc34)n2)CCN1` (stereo not drawn) [Compound 153], the Ki in assay [1] is < 500 nM; in assay [2], < 500 nM; in assay [3], < 2800 nM.
As for `CCC(O)(CC)C1CN(c2cccc(-c3n[nH]c4ncccc34)n2)CCN1` (stereo not drawn) [Compound 154], the Ki in assay [1] was < 50 nM; in assay [2], < 500 nM; in assay [3] it was < 2800 nM.
The corresponding values for `CC(F)(F)CC1CN(c2ccc(F)c(-c3n[nH]c4ncccc34)n2)CCN1` (stereo not drawn) [Compound 155] are < 50 nM, < 500 nM and > 1250 nM.
The corresponding values for `OC1([C@@H]2CN(c3nc(-c4n[nH]c5ncccc45)c(F)cc3F)CCN2)CC1` [Compound 156] are < 1 nM, < 500 nM and > 1250 nM.
In the same order, the values of `C1=C(c2cccc(-c3n[nH]c4ncccc34)n2)CCNC1` [Compound 157] are < 500 nM, > 1250 nM and > 1250 nM.
On to `c1cc(-c2n[nH]c3ncccc23)nc(C2CCNCC2)c1` [Compound 159], for which the Ki in assay [1] was < 500 nM; in assay [2], < 500 nM; in assay [3] it was < 2800 nM.
For `CCC(C)(O)C1CN(c2cccc(-c3n[nH]c4ncccc34)n2)CCN1` (stereo not drawn) [Compound 160], the Ki in assay [1] is < 50 nM; in assay [2] it was < 500 nM; in assay [3], < 2800 nM.
The corresponding values for `CCC(C)(O)C1CN(c2ccc(F)c(-c3n[nH]c4ncccc34)n2)CCN1` (stereo not drawn) [Compound 161] are < 50 nM, < 500 nM and > 1250 nM.
For `c1cc(-c2n[nH]c3ncccc23)nc(N2CCN[C@@H](CC3CC3)C2)c1` [Compound 162], the Ki is < 50 nM in assay [1], < 500 nM in assay [2] and < 2800 nM in assay [3].
For the molecule `Fc1ccc(N2CCN[C@@H](CC3CC3)C2)nc1-c1n[nH]c2ncccc12` [Compound 163], the Ki in assay [1] was < 50 nM; in assay [2], > 1250 nM; in assay [3] it was > 1250 nM.
With `CC(O)C1CN(c2cccc(-c3n[nH]c4ncccc34)n2)CCN1` (stereo not drawn) [Compound 164], the values for the Ki in assay [1], in assay [2] and in assay [3] were < 50 nM, < 500 nM and > 1250 nM, respectively.
Turning to `FC(F)(F)c1ccc(N2CCN[C@@H](CC3CC3)C2)nc1-c1n[nH]c2ncccc12` [Compound 165], the Ki in assay [1] was < 500 nM; in assay [2], > 1250 nM; in assay [3], > 1250 nM.
With `O=C1CNCCN1c1cccc(-c2n[nH]c3ncccc23)n1` [Compound 166], the Ki in assay [1] is > 700 nM; in assay [2], > 1250 nM; in assay [3], > 1250 nM.
`CC(C)C(F)(F)C1CN(c2ccc(F)c(-c3n[nH]c4ncccc34)n2)CCN1` (stereo not drawn) [Compound 167]: the Ki is < 500 nM in assay [1], > 1250 nM in assay [2] and > 1250 nM in assay [3].
Regarding `CC(C)C[C@@H]1CN(c2cccc(-c3n[nH]c4ncccc34)n2)CC[C@@H]1N` [Compound 169], the Ki in assay [1] is < 50 nM; in assay [2], < 50 nM; in assay [3] it was < 500 nM.
In the case of `FC(F)(F)c1ccc(N2CCNC(c3cccc(Cl)c3)C2)nc1-c1n[nH]c2ncccc12` (stereo not drawn) [Compound 170], the Ki is < 50 nM in assay [1], < 2800 nM in assay [2] and < 500 nM in assay [3].
Consider `Fc1ccc(C2CN(c3ccc(C(F)(F)F)c(-c4n[nH]c5ncccc45)n3)CCN2)cc1` (stereo not drawn) [Compound 171], for which the Ki is < 500 nM in assay [1], > 1250 nM in assay [2] and > 1250 nM in assay [3].
Regarding `FC(F)(F)c1ccc(N2CCNC(c3cccc(Br)c3)C2)nc1-c1n[nH]c2ncccc12` (stereo not drawn) [Compound 172], the Ki is < 500 nM in assay [1], > 1250 nM in assay [2] and < 2800 nM in assay [3].
In the same order, the values of `FC(F)(F)c1ccc(N2CCNC(c3ccc(Cl)cc3)C2)nc1-c1n[nH]c2ncccc12` (stereo not drawn) [Compound 173] are > 700 nM, > 1250 nM and > 1250 nM.
In the same order, the values of `CC(C)(O)[C@@H]1CN(c2cccc(-c3n[nH]c4ncccc34)n2)CCN1` [Compound 176] are < 50 nM, < 50 nM and > 1250 nM.
In the same order, the values of `CC(C)C(C)(O)C1CN(c2cccc(-c3n[nH]c4ncccc34)n2)CCN1` (stereo not drawn) [Compound 177] are < 1 nM, < 50 nM and < 2800 nM.
Regarding `COC(C)(C)C1CN(c2cccc(-c3n[nH]c4ncccc34)n2)CCN1` (stereo not drawn) [Compound 181], the values for the Ki in assay [1], in assay [2] and in assay [3] were < 50 nM, < 500 nM and > 1250 nM, respectively.
